Experiments:
[1] = test system: A549-ACE2 infected with SARS-CoV-2; experiment: cell count relative to DMSO; higher = less toxic; details: 24 h
A549-ACE2 [2] = experiment: drug-induced phospholipidosis relative to tamoxifen; higher = more phospholipidosis
HepG2 [3] = experiment: cell viability relative to DMSO; higher = less toxic; details: 72 h
Vero E6 [4] = experiment: as above; details: 72 h
Calu-3 [5] = experiment: as above; details: 72 h
U2OS [6] = experiment: as above; details: 72 h
Caco-2 [7] = experiment: as above; details: 72 h
A549-ACE2 [8] = experiment: phospholipidosis EC50; higher = less potent phospholipidosis inducer
[9] = test system: A549-ACE2 infected with SARS-CoV-2; experiment: SARS-CoV-2 infection rate relative to DMSO; higher = more infection; details: 24 h
[10] = test system: A549-ACE2 infected with SARS-CoV-2; experiment: morphology score (similarity to uninfected cells); higher = more like uninfected cells; details: 24 h
HepG2 [11] = experiment: drug sensitivity score (DSS) for viability; higher = more toxic; extreme values may be limits of the assay; details: 72 h
Vero E6 [12] = experiment: as above; details: 72 h
Calu-3 [13] = experiment: as above; details: 72 h
U2OS [14] = experiment: as above; details: 72 h
Caco-2 [15] = experiment: as above; details: 72 h
Vero E6 [16] = experiment: relative viability EC50 (midpoint between 100% and the lowest measured viability); higher = less toxic; details: 72 h
Calu-3 [17] = experiment: as above; details: 72 h
HepG2 [18] = experiment: as above; details: 72 h
U2OS [19] = experiment: as above; details: 72 h
Caco-2 [20] = experiment: as above; details: 72 h

O=[N+]([O-])c1ccccc1S(=O)(=O)NCC1CCC(CNC[C@H]2CCc3ccccc3C2)CC1 (some centres not stated) [NTNCB]
Details	SARS-CoV-2 infection rate [%]	cell count [%]	cell viability [%]	morphology score	phospholipidosis EC50 [µM]
A549-ACE2 [8], 24 h	–	–	–	–	1.46
A549-ACE2 [8], 48 h	–	–	–	–	3.21
A549-ACE2 [8], 72 h	–	–	–	–	5.01
Caco-2 [7], 1 nM	–	–	93.7	–	–
Caco-2 [7], 10 nM	–	–	95.2	–	–
Caco-2 [7], 100 nM	–	–	98.8	–	–
Caco-2 [7], 1000 nM	–	–	86.6	–	–
Caco-2 [7], 10000 nM	–	–	64.8	–	–
Calu-3 [5], 1 nM	–	–	104	–	–
Calu-3 [5], 10 nM	–	–	103	–	–
Calu-3 [5], 100 nM	–	–	96.6	–	–
Calu-3 [5], 1000 nM	–	–	105	–	–
Calu-3 [5], 10000 nM	–	–	15	–	–
HepG2 [3], 1 nM	–	–	99.1	–	–
HepG2 [3], 10 nM	–	–	96.6	–	–
HepG2 [3], 100 nM	–	–	91	–	–
HepG2 [3], 1000 nM	–	–	101	–	–
HepG2 [3], 10000 nM	–	–	57.1	–	–
U2OS [6], 1 nM	–	–	96.2	–	–
U2OS [6], 10 nM	–	–	93	–	–
U2OS [6], 100 nM	–	–	99.6	–	–
U2OS [6], 1000 nM	–	–	94.9	–	–
U2OS [6], 10000 nM	–	–	72.5	–	–
Vero E6 [4], 1 nM	–	–	94.9	–	–
Vero E6 [4], 10 nM	–	–	95.3	–	–
Vero E6 [4], 100 nM	–	–	89.8	–	–
Vero E6 [4], 1000 nM	–	–	94.5	–	–
Vero E6 [4], 10000 nM	–	–	79.2	–	–
[1], 0.1 µM	–	101	–	–	–
[1], 0.3 µM	–	99	–	–	–
[1], 1 µM	–	103	–	–	–
[1], 3 µM	–	119	–	–	–
[9], 0.1 µM	90	–	–	–	–
[9], 0.3 µM	102	–	–	–	–
[9], 1 µM	84	–	–	–	–
[9], 3 µM	36	–	–	–	–
[10], 0.1 µM	–	–	–	0.29	–
[10], 0.3 µM	–	–	–	-0.23	–
[10], 1 µM	–	–	–	0.28	–
[10], 3 µM	–	–	–	0.73	–

drug-induced phospholipidosis [%], A549-ACE2 [2]
Details	0.3 µM	0.833333 µM	3.33333 µM	6.66667 µM	10 µM	30 µM
24 h	2.25	13.4	66.1	101	91.2	45.6
48 h	4.73	11.2	54.3	93.7	117	42.7
72 h	6.41	10.5	45.9	102	126	–

Details	drug sensitivity score	relative viability EC50 [µM]
Caco-2 [15]	3.3	–
Calu-3 [13]	4.3	–
Calu-3 [17]	–	3.49
HepG2 [11]	2.1	–
U2OS [14]	1.9	–
Vero E6 [12]	0.9	–
Vero E6 [16]	–	> 10

Cc1cc(Nc2ccc(NC(=O)c3ccc(Nc4ccnc5ccccc45)cc3)cc2)nc(N)n1 [SGI-1027]
Details	SARS-CoV-2 infection rate [%]	cell count [%]	cell viability [%]	morphology score	phospholipidosis EC50 [µM]
A549-ACE2 [8], 24 h	–	–	–	–	2.95
A549-ACE2 [8], 48 h	–	–	–	–	3.26
A549-ACE2 [8], 72 h	–	–	–	–	3.61
Caco-2 [7], 1 nM	–	–	103	–	–
Caco-2 [7], 10 nM	–	–	114	–	–
Caco-2 [7], 100 nM	–	–	103	–	–
Caco-2 [7], 1000 nM	–	–	99.4	–	–
Caco-2 [7], 10000 nM	–	–	13.1	–	–
Calu-3 [5], 1 nM	–	–	106	–	–
Calu-3 [5], 10 nM	–	–	109	–	–
Calu-3 [5], 100 nM	–	–	112	–	–
Calu-3 [5], 1000 nM	–	–	106	–	–
Calu-3 [5], 10000 nM	–	–	2.8	–	–
HepG2 [3], 1 nM	–	–	110	–	–
HepG2 [3], 10 nM	–	–	108	–	–
HepG2 [3], 100 nM	–	–	104	–	–
HepG2 [3], 1000 nM	–	–	39.5	–	–
HepG2 [3], 10000 nM	–	–	-0.3	–	–
U2OS [6], 1 nM	–	–	98.1	–	–
U2OS [6], 10 nM	–	–	104	–	–
U2OS [6], 100 nM	–	–	103	–	–
U2OS [6], 1000 nM	–	–	104	–	–
U2OS [6], 10000 nM	–	–	1	–	–
Vero E6 [4], 1 nM	–	–	96.9	–	–
Vero E6 [4], 10 nM	–	–	99	–	–
Vero E6 [4], 100 nM	–	–	94.7	–	–
Vero E6 [4], 1000 nM	–	–	96.6	–	–
Vero E6 [4], 10000 nM	–	–	63.9	–	–
[1], 0.1 µM	–	106	–	–	–
[1], 0.3 µM	–	95	–	–	–
[1], 1 µM	–	106	–	–	–
[1], 3 µM	–	34	–	–	–
[9], 0.1 µM	91	–	–	–	–
[9], 0.3 µM	101	–	–	–	–
[9], 1 µM	59	–	–	–	–
[9], 3 µM	24	–	–	–	–
[10], 0.1 µM	–	–	–	0.25	–
[10], 0.3 µM	–	–	–	-0.15	–
[10], 1 µM	–	–	–	0.65	–
[10], 3 µM	–	–	–	0.16	–

drug-induced phospholipidosis [%], A549-ACE2 [2]
Details	0.3 µM	0.833333 µM	3.33333 µM	6.66667 µM
24 h	6.15	4.67	40.2	55.8
48 h	5.31	4.66	44.4	77.3
72 h	4.09	2.03	32.5	76.8

Details	drug sensitivity score	relative viability EC50 [µM]
Caco-2 [15]	4.9	–
Caco-2 [20]	–	3.12
Calu-3 [13]	5	–
Calu-3 [17]	–	3.48
HepG2 [11]	12.6	–
HepG2 [18]	–	0.844
U2OS [14]	5.2	–
U2OS [19]	–	3.39
Vero E6 [12]	2.3	–

Cc1cccc(/C=N/Nc2cc(N3CCOCC3)nc(OCCc3ccccn3)n2)c1 [STA-5326]
Details	SARS-CoV-2 infection rate [%]	cell count [%]	cell viability [%]	morphology score	phospholipidosis EC50 [µM]
A549-ACE2 [8], 24 h	–	–	–	–	0.3
A549-ACE2 [8], 48 h	–	–	–	–	0.809
A549-ACE2 [8], 72 h	–	–	–	–	0.687
Caco-2 [7], 1 nM	–	–	91.2	–	–
Caco-2 [7], 10 nM	–	–	96.4	–	–
Caco-2 [7], 100 nM	–	–	94.7	–	–
Caco-2 [7], 1000 nM	–	–	78.9	–	–
Caco-2 [7], 10000 nM	–	–	60.8	–	–
Calu-3 [5], 1 nM	–	–	104	–	–
Calu-3 [5], 10 nM	–	–	104	–	–
Calu-3 [5], 100 nM	–	–	97.9	–	–
Calu-3 [5], 1000 nM	–	–	93.6	–	–
Calu-3 [5], 10000 nM	–	–	90.1	–	–
HepG2 [3], 1 nM	–	–	99.3	–	–
HepG2 [3], 10 nM	–	–	88.2	–	–
HepG2 [3], 100 nM	–	–	93	–	–
HepG2 [3], 1000 nM	–	–	26.2	–	–
HepG2 [3], 10000 nM	–	–	19.7	–	–
U2OS [6], 1 nM	–	–	97.6	–	–
U2OS [6], 10 nM	–	–	100	–	–
U2OS [6], 100 nM	–	–	95	–	–
U2OS [6], 1000 nM	–	–	91.3	–	–
U2OS [6], 10000 nM	–	–	75.1	–	–
Vero E6 [4], 1 nM	–	–	97.2	–	–
Vero E6 [4], 10 nM	–	–	104	–	–
Vero E6 [4], 100 nM	–	–	93.8	–	–
Vero E6 [4], 1000 nM	–	–	42.4	–	–
Vero E6 [4], 10000 nM	–	–	43.2	–	–
[1], 0.3 µM	–	104	–	–	–
[1], 3 µM	–	95	–	–	–
[1], 10 µM	–	106	–	–	–
[1], 30 µM	–	108	–	–	–
[9], 0.3 µM	51	–	–	–	–
[9], 3 µM	77	–	–	–	–
[9], 10 µM	91	–	–	–	–
[9], 30 µM	35	–	–	–	–
[10], 0.3 µM	–	–	–	-0.01	–
[10], 3 µM	–	–	–	-0.14	–
[10], 10 µM	–	–	–	0	–
[10], 30 µM	–	–	–	0.18	–

drug-induced phospholipidosis [%], A549-ACE2 [2]
Details	0.3 µM	0.833333 µM	3.33333 µM	6.66667 µM	10 µM	30 µM
24 h	103	105	105	124	111	85.7
48 h	104	80.8	58.2	63.7	66	–
72 h	113	59.5	34.8	46.3	59.3	–

Details	drug sensitivity score	relative viability EC50 [µM]
Caco-2 [15]	4.2	–
Calu-3 [13]	0	–
Calu-3 [17]	–	> 10
HepG2 [11]	14.6	–
HepG2 [18]	–	0.308
U2OS [14]	1.5	–
U2OS [19]	–	> 10
Vero E6 [12]	11.6	–
Vero E6 [16]	–	0.228

CC1(C)CC[C@]2(C(=O)O)CC[C@]3(C)[C@H](C(=O)C=C4[C@@]5(C)C=C(C#N)C(=O)C(C)(C)[C@@H]5CC[C@]43C)[C@@H]2C1 [bardoxolone]
Details	SARS-CoV-2 infection rate, [9] [%]	cell count, [1] [%]	cell viability, Caco-2 [7] [%]	cell viability, Calu-3 [5] [%]	cell viability, HepG2 [3] [%]	cell viability, U2OS [6] [%]	cell viability, Vero E6 [4] [%]	morphology score, [10]
1 nM	–	–	91.3	102	98.2	101	101	–
10 nM	–	–	107	104	92.1	104	102	–
0.1 µM	97	101	–	–	–	–	–	0.07
100 nM	–	–	78.1	102	89.7	102	111	–
0.3 µM	99	91	–	–	–	–	–	-0.05
1 µM	99	89	–	–	–	–	–	-0.09
1000 nM	–	–	83.8	92.5	62.8	72.3	104	–
3 µM	115	94	–	–	–	–	–	-0.26
10000 nM	–	–	82.9	15.5	5.4	12	18.3	–

drug-induced phospholipidosis [%], A549-ACE2 [2]
Details	0.3 µM	0.833333 µM	3.33333 µM	6.66667 µM	10 µM
24 h	-1.07	-5.8	7.86	18.2	-6.56
48 h	-3.77	-7.72	1.1	–	–
72 h	-2.71	-7.17	–	–	–

Details	drug sensitivity score	relative viability EC50 [µM]
Caco-2 [15]	5.3	–
Caco-2 [20]	–	> 10
Calu-3 [13]	5.9	–
Calu-3 [17]	–	2.44
HepG2 [11]	9.5	–
HepG2 [18]	–	1.28
U2OS [14]	8.9	–
U2OS [19]	–	1.37
Vero E6 [12]	4.2	–
Vero E6 [16]	–	3.43
